The subject of assay [1] is RAW 264.7 mouse macrophages. Nature of the assay: Proteome profiler cytokine release assay in RAW 264.7 macrophages. Type of assay: cell-based. Particulars: stimulus C5a 10 nM or Paclitaxel 10 nM, 24 h; DF3966A 10 μM, anti C5aR Ab 50 nM, Avacopan 10 μM. The method, then: RAW 264.7 (ATTC TIB-71) mouse macrophages were cultured following manufacturer's instructions using DMEM medium (Euroclone, MI, Italy) supplemented with 10% FBS (non-heat inactivated) (ATCC, USA) at 37° C., in a humidified 95% air-5% CO2 atmosphere and then were seeded at 1*10^4 cells/cm^2.
(§1) After 24 hours, cells were treated with C5a (diluted in medium) (10 nM, R&D, USA), Paclitaxel (diluted in medium) (10 nM, Sigma, USA) in the absence and in the presence of the C5a inhibitor DF3966A (10 μM), and anti C5aR Ab (BioLegend, CA, USA; 50 nM) or Avacopan (10 μM) for 24 hours, then the media was replaced with culture media (5 ml) for 24 h and then collected.
(§2) Conditioned media were centrifugated to remove particulates and assayed immediately. […] The reagents were prepared following manufacturer's protocols (R&D, USA). Briefly, the membranes were incubated with Array Buffer 6 for 1 hour on a rocking platform shaker. The samples were prepared by adding up to 1 ml of Array Buffer 4 in two separated tubes and then 15 microl of reconstituted mouse cytokine detection antibody cocktail (>40 mouse cytokines) to each prepared sample and incubated 1 hour. Then, the Array Buffer 6 was aspirated and replaced with the sample/antibody mixtures and incubated at 4° C. overnight. The following day, membranes were washed 3 times and Streptavidin-HRP (1:2000) was incubated for 30 minutes at room temperature on a rocking platform shaker. The membranes were washed again, and 1 ml of prepared Chemi Reagent mix was placed onto each membrane. Multiple exposure times were acquired using UVITEC digital analyzer (Alliance, Cambridge, UK).
(§3) The positive signals seen in the developed membranes can be identified by placing the transparency overlay template on the array image and aligning it with pairs of reference spots in the three corners of each array (see FIG. 10). […] Pixel densities (average signals of pair of duplicates which represent each cytokine) were analyzed by ImageJ and the average background was subtracted from each spot.
(§4) In details, the profiling of cytokines released (>40 cytokines) from RAW 264.7 and human macrophages challenged with paclitaxel (Sigma-Aldrich; 10 nM) or C5a (R&D Systems, Inc. MN, USA; 10 nM) for 24 h using a proteome profiler assay. […] The experimental assay is explained in example 4.
(§5) For the human macrophages, human XL Cytokine Array kit #Ary022B was used, while for murine macrophages mouse cytokine Array Panel A #Ary006 was used (R&D systems, USA).

The test system of assay [2] is human (THP-1) macrophages. Nature of the assay: Proteome profiler cytokine release assay in human macrophages. Type of assay: cell-based. Conditions: human macrophages; stimulus C5a 10 nM or paclitaxel 10 nM, 24 h. The method, then: as §1, §2, §3, §4, §5
In assay [3] the test system is paclitaxel-induced HSRs in mice. The experiment in a line: Prevention of paclitaxel-induced HSRs in vivo by C5aR1 inhibition (Example 8). Particulars: 30 mg/kg, os; for increment of serum concentration of complement 5b-9 (SC5b-9) / increment of serum concentration of histamine: pre-treatment, paclitaxel-treated mice, ELISA; for paclitaxel-induced increase of plasma extravasation / paclitaxel-induced increase of vascular leakage: DF3966A 3 h, Avacopan 1 h before paclitaxel 20 mg/kg iv in Cremophor EL. The method, then: ) was intravenousely administrated at 20 mg/kg (0.1 mL/Kg) dissolved in Cremophor EL (polyoxyl 35 castor oil, Sigma-Aldrich, cod. 238470). […] Cremophor alone (Cremophor) was used as a control. […] Intracardiac injection was done to obtain blood in tubes and leaving it undisturbed at room temperature. Serum was separated from blood cells 30 minutes later by centrifugation (2000×g for 10 min, at 4° C.). Aliquots were prepared and stored at -20° C. ELISA kit was used to evaluate the following marker: histamine and SC5b-9 (Mybiosource, San Diego, USA Cat.No: MBS9361379, MBS725193).
For orientation: ELISA stands for enzyme-linked immunosorbent assay.

Molecules are shown by their SMILES. Entries after “also recorded” stand apart in the source; their conditions may differ.

In the case of `Cc1ccc(NC(=O)[C@H]2CCCN(C(=O)c3c(C)cccc3F)[C@H]2c2ccc(NC3CCCC3)cc2)cc1C(F)(F)F` [Avacopan, (2R,3S)-2-[4-(Cyclopentylamino)phenyl]-1-(2-fluoro-6-methylbenzoyl)-N-[4-methyl-3-(trifluoromethyl)phenyl]piperidine-3-carboxamide], the “effect on C5a- and paclitaxel-induced cytokine release” value (“effect” below) in assay [1] is on record as “inhibited; also recorded: counteracted”. In assay [2], the “effect” value is “effectively counteracted”. Also, in assay [3], the “increment of serum concentration of complement 5b-9 (SC5b-9)” value was “significatively reduced”, the “increment of serum concentration of histamine” value is reported as “significatively reduced”, the “paclitaxel-induced increase of plasma extravasation” value is “abolishing” and the “paclitaxel-induced increase of vascular leakage” value is “abolishing”.

For the molecule `C[C@H](c1ccc(Nc2nc(C(F)(F)F)cs2)cc1)c1nn[nH]n1` [DF3966A, 5-[(1R)-1-(4-{[4-(trifluoromethyl)-1,3-thiazol-2-yl]amino}phenyl)ethyl]tetrazol-2-ide], the “effect” value in assay [1] is listed as “inhibited; also recorded: counteracted”. Also, the “effect” value in assay [2] is on record as “effectively counteracted”. Also, in assay [3], the “increment of serum concentration of complement 5b-9 (SC5b-9)” value is given as “significatively reduced”, the “increment of serum concentration of histamine” value is reported as “significatively reduced”, the “paclitaxel-induced increase of plasma extravasation” value is “abolishing” and the “paclitaxel-induced increase of vascular leakage” value is “abolishing”.

Source of the values: US20240180888A1, “C5AR1 INHIBITORS FOR TREATING […] REACTIONS TO TAXANES” (Dompe' Farmaceutici SPA, priority 2021, published 2024).
